According to patent publication US20030166601A1, “Novel colloid synthetic vectors for gene therapy” (priority 1999, published 2003):

Test system: CD-1 mice
Assay: Luciferase expression in organs after intravenous injection of pCILuc complexes
Type: in vivo
Conditions: for Luciferase RLU/20 μl lysate heart / Luciferase RLU/20 μl lysate kidney / Luciferase RLU/20 μl lysate liver / Luciferase RLU/20 μl lysate lung / Luciferase RLU/20 μl lysate spleen: 40 μg pCILuc i.v., 5 h; for Luciferase activity heart / Luciferase activity kidney / Luciferase activity liver / Luciferase activity lung / Luciferase activity spleen: Table 5
Procedure: Substituted aminoethanols (cationic compounds) were prepared as described in Examples 1-34. Their gene delivery ability was studied in vivo by intravenous injection (Table 1 and 2) using a standard method. The preparations were administered via tail vein injection to mice and gene expression determined after 5 hours. Female CD-1 mice, 13-15 g, were purchased from Charles River Inc. Forty microgram of pCILuc complexed with GC lipids or GC lipid:Chol dispersion as indicated weight ratios. After 5 h, mice were sacrificed and organs were collected. Organs were homogenized in 0.5 ml of lysis buffer and 20 μl of supernatant was used for luciferase assay. Luciferase activity was represented as a mean of relative light unit (RLU) of four mice. The lipids were either used alone or combined with cholesterol and complexed with a luciferase reporter gene plasmid by a standard procedure at a range of weight and charge ratios. For the in vivo screen, 40 μg of pCILuc was complexed with the formulation and injected into the mice.
All compounds were evaluated for in vivo activity. Two critical factors were examined, formulation with or without cholesterol and the ratio of cationic lipid to DNA. Cholesterol was tested at 1:1 mole ratio of lipid:chol. The studies were performed with a dose of 40 μg of pCILuc complexed with cationic lipid or lipid: Chol (1:1 mole ratio) injected i.v. into CD-1 mice and then luciferase activity in different organs determined 5 h later. The first evaluation included all of 14 GC-lipids at weight ratios of 2 and 10 (GC lipid to DNA). It was performed by four separated experiments. Each time cationic liposome DOTAP:Chol was used as a standard control.
Measurements were repeated with lipids GC-030, GC-034 and GC-029 at wider weight ratios than the first experiment. Luciferase activity is represented as a mean of relative light unit (RLU) of four mice. WR means weight ratio of GC lipids to DNA. The transfection activity was represented by luciferase activity RLU/organ. […] The transfection activity increased with the increased weight ratio (GC lipids to DNA). Inclusion of cholesterol can change the biodistribution of gene expression in the different organs examined. […] However this function of cholesterol was not seen with GC-034.

## CCCCCCCCCCCCCCCCCCN(CCCCCCCCCCCCCCCCCC)C(=O)CNC(=O)[C@H](CCCN(CCCN)CCCN)N(CCCN)CCCN.O=C(O)C(F)(F)F.O=C(O)C(F)(F)F.O=C(O)C(F)(F)F.O=C(O)C(F)(F)F.O=C(O)C(F)(F)F.O=C(O)C(F)(F)F [GC-016]
WR 2
  Luciferase RLU/20 μl lysate heart: 44 RLU/20 μl lysate
  Luciferase RLU/20 μl lysate kidney: 41 RLU/20 μl lysate
  Luciferase RLU/20 μl lysate liver: 38 RLU/20 μl lysate
  Luciferase RLU/20 μl lysate lung: 45 RLU/20 μl lysate
WR 10
  Luciferase RLU/20 μl lysate heart: 40 RLU/20 μl lysate
  Luciferase RLU/20 μl lysate kidney: 40 RLU/20 μl lysate
  Luciferase RLU/20 μl lysate liver: 95 RLU/20 μl lysate
  Luciferase RLU/20 μl lysate lung: 67 RLU/20 μl lysate
WR 10, spleen
  Luciferase RLU/20 μl lysate spleen: 230 RLU/20 μl lysate
WR (lipid to DNA) 2, spleen
  Luciferase RLU/20 μl lysate spleen: 40 RLU/20 μl lysate

## CCCCCCCCCCCCCCCCCCN(CCCCCCCCCCCCCCCCCC)C(=O)[C@H](CCC(=O)NCCN(CCNC(=O)CC[C@H](NC(=O)[C@H](CCCNCCCN)NCCCN)C(=O)N(CCCCCCCCCCCCCCCCCC)CCCCCCCCCCCCCCCCCC)CCNC(=O)CC[C@H](NC(=O)[C@H](CCCNCCCN)NCCCN)C(=O)N(CCCCCCCCCCCCCCCCCC)CCCCCCCCCCCCCCCCCC)NC(=O)[C@H](CCCNCCCN)NCCCN.O=C(O)C(F)(F)F.O=C(O)C(F)(F)F.O=C(O)C(F)(F)F.O=C(O)C(F)(F)F.O=C(O)C(F)(F)F.O=C(O)C(F)(F)F.O=C(O)C(F)(F)F.O=C(O)C(F)(F)F.O=C(O)C(F)(F)F.O=C(O)C(F)(F)F.O=C(O)C(F)(F)F.O=C(O)C(F)(F)F.O=C(O)C(F)(F)F [GC-071]
WR 2
  Luciferase RLU/20 μl lysate heart: 60 RLU/20 μl lysate
  Luciferase RLU/20 μl lysate kidney: 58 RLU/20 μl lysate
  Luciferase RLU/20 μl lysate liver: 59 RLU/20 μl lysate
  Luciferase RLU/20 μl lysate lung: 56 RLU/20 μl lysate
WR 10
  Luciferase RLU/20 μl lysate heart: 61 RLU/20 μl lysate
  Luciferase RLU/20 μl lysate kidney: 67 RLU/20 μl lysate
  Luciferase RLU/20 μl lysate liver: 531 RLU/20 μl lysate
  Luciferase RLU/20 μl lysate lung: 73 RLU/20 μl lysate
WR 10, spleen
  Luciferase RLU/20 μl lysate spleen: 286 RLU/20 μl lysate
WR (lipid to DNA) 2, spleen
  Luciferase RLU/20 μl lysate spleen: 61 RLU/20 μl lysate

## CCCCCCCCCCCCCCCCCC(CCCCCCCCCCCCCCCCC)NC(=O)CNC(=O)CNC(=O)[C@H](CCCNCCCN)NCCCN.O=C(O)C(F)(F)F.O=C(O)C(F)(F)F.O=C(O)C(F)(F)F.O=C(O)C(F)(F)F [GC-038]
WR 2
  Luciferase RLU/20 μl lysate heart: 101 RLU/20 μl lysate
  Luciferase RLU/20 μl lysate kidney: 60 RLU/20 μl lysate
  Luciferase RLU/20 μl lysate liver: 59 RLU/20 μl lysate
  Luciferase RLU/20 μl lysate lung: 142 RLU/20 μl lysate
WR 10
  Luciferase RLU/20 μl lysate heart: 57 RLU/20 μl lysate
  Luciferase RLU/20 μl lysate kidney: 58 RLU/20 μl lysate
  Luciferase RLU/20 μl lysate liver: 93 RLU/20 μl lysate
  Luciferase RLU/20 μl lysate lung: 63 RLU/20 μl lysate
WR 10, spleen
  Luciferase RLU/20 μl lysate spleen: 160 RLU/20 μl lysate
WR (lipid to DNA) 2, spleen
  Luciferase RLU/20 μl lysate spleen: 61 RLU/20 μl lysate

## CCCCCCCCCCCCCCCCCCN(CCCCCCCCCCCCCCCCCC)C(=O)CNC(=O)[C@@H](N)CCCN.O=C(O)C(F)(F)F.O=C(O)C(F)(F)F [GC-035]
WR 2
  Luciferase RLU/20 μl lysate heart: 54 RLU/20 μl lysate
  Luciferase RLU/20 μl lysate kidney: 46 RLU/20 μl lysate
  Luciferase RLU/20 μl lysate liver: 57 RLU/20 μl lysate
  Luciferase RLU/20 μl lysate lung: 57 RLU/20 μl lysate
WR 10
  Luciferase RLU/20 μl lysate heart: 51 RLU/20 μl lysate
  Luciferase RLU/20 μl lysate kidney: 54 RLU/20 μl lysate
  Luciferase RLU/20 μl lysate liver: 50 RLU/20 μl lysate
  Luciferase RLU/20 μl lysate lung: 54 RLU/20 μl lysate
WR 10, spleen
  Luciferase RLU/20 μl lysate spleen: 54 RLU/20 μl lysate
WR (lipid to DNA) 2, spleen
  Luciferase RLU/20 μl lysate spleen: 70 RLU/20 μl lysate

## CCCCCCCCCCCCCCCCCC(CCCCCCCCCCCCCCCCC)NC(=O)CNC(=O)CNC(=O)[C@@H](N)CCCN.O=C(O)C(F)(F)F.O=C(O)C(F)(F)F [GC-039]
WR 2
  Luciferase RLU/20 μl lysate heart: 50 RLU/20 μl lysate
  Luciferase RLU/20 μl lysate kidney: 45 RLU/20 μl lysate
  Luciferase RLU/20 μl lysate liver: 48 RLU/20 μl lysate
  Luciferase RLU/20 μl lysate lung: 52 RLU/20 μl lysate
WR 10
  Luciferase RLU/20 μl lysate heart: 45 RLU/20 μl lysate
  Luciferase RLU/20 μl lysate kidney: 54 RLU/20 μl lysate
  Luciferase RLU/20 μl lysate liver: 212 RLU/20 μl lysate
  Luciferase RLU/20 μl lysate lung: 753 RLU/20 μl lysate
WR 10, spleen
  Luciferase RLU/20 μl lysate spleen: 845 RLU/20 μl lysate
WR (lipid to DNA) 2, spleen
  Luciferase RLU/20 μl lysate spleen: 288 RLU/20 μl lysate

## CCCCCCCCCCCCCCCCCCN(CCCCCCCCCCCCCCCCCC)C(=O)CC[C@H](NC(=O)[C@H](CCCNCCCN)NCCCN)C(=O)O.O=C(O)C(F)(F)F.O=C(O)C(F)(F)F.O=C(O)C(F)(F)F.O=C(O)C(F)(F)F [GC-033]
WR 2
  Luciferase RLU/20 μl lysate heart: 31 RLU/20 μl lysate
  Luciferase RLU/20 μl lysate kidney: 27 RLU/20 μl lysate
  Luciferase RLU/20 μl lysate liver: 29 RLU/20 μl lysate
  Luciferase RLU/20 μl lysate lung: 36 RLU/20 μl lysate
WR 10
  Luciferase RLU/20 μl lysate heart: 40 RLU/20 μl lysate
  Luciferase RLU/20 μl lysate kidney: 41 RLU/20 μl lysate
  Luciferase RLU/20 μl lysate liver: 46 RLU/20 μl lysate
  Luciferase RLU/20 μl lysate lung: 42 RLU/20 μl lysate
WR 10, spleen
  Luciferase RLU/20 μl lysate spleen: 50 RLU/20 μl lysate
WR (lipid to DNA) 2, spleen
  Luciferase RLU/20 μl lysate spleen: 27 RLU/20 μl lysate

## CCCCCCCCCCCCCCCCCC(CCCCCCCCCCCCCCCCC)OC(=O)NCCNC(=O)[C@@H](N)CCCN.O=C(O)C(F)(F)F.O=C(O)C(F)(F)F [GC-030]
WR 1
  Luciferase activity heart: 1,675 RLU/organ
  Luciferase activity kidney: 1,392 RLU/organ
  Luciferase activity liver: 3,642 RLU/organ
  Luciferase activity lung: 3,308 RLU/organ
WR 1, spleen
  Luciferase activity spleen: 23,308 RLU/organ
WR 2
  Luciferase RLU/20 μl lysate heart: 48 RLU/20 μl lysate
  Luciferase activity heart: 1,367 RLU/organ
  Luciferase RLU/20 μl lysate kidney: 51 RLU/20 μl lysate
  Luciferase activity kidney: 1,458 RLU/organ
  Luciferase RLU/20 μl lysate liver: 70 RLU/20 μl lysate
  Luciferase activity liver: 3,417 RLU/organ
  Luciferase RLU/20 μl lysate lung: 88 RLU/20 μl lysate
  Luciferase activity lung: 1,600 RLU/organ
WR 2, spleen
  Luciferase activity spleen: 73,442 RLU/organ
WR 6
  Luciferase activity heart: 817 RLU/organ
  Luciferase activity kidney: 792 RLU/organ
  Luciferase activity liver: 1,550 RLU/organ
  Luciferase activity lung: 8,808 RLU/organ
WR 6, spleen
  Luciferase activity spleen: 38,058 RLU/organ
WR 10
  Luciferase RLU/20 μl lysate heart: 67 RLU/20 μl lysate
  Luciferase activity heart: 3,450 RLU/organ
  Luciferase RLU/20 μl lysate kidney: 105 RLU/20 μl lysate
  Luciferase activity kidney: 1,367 RLU/organ
  Luciferase RLU/20 μl lysate liver: 1,093 RLU/20 μl lysate
  Luciferase activity liver: 114,425 RLU/organ
  Luciferase RLU/20 μl lysate lung: 1,396 RLU/20 μl lysate
  Luciferase activity lung: 35,117 RLU/organ
WR 10, spleen
  Luciferase RLU/20 μl lysate spleen: 5,305 RLU/20 μl lysate
  Luciferase activity spleen: 446,650 RLU/organ
WR 20
  Luciferase activity heart: 4,783 RLU/organ
  Luciferase activity kidney: 17,583 RLU/organ
  Luciferase activity liver: 1,003,125 RLU/organ
  Luciferase activity lung: 689,475 RLU/organ
WR 20, spleen
  Luciferase activity spleen: 2,479,217 RLU/organ
WR (lipid to DNA) 2, spleen
  Luciferase RLU/20 μl lysate spleen: 3,692 RLU/20 μl lysate
Weight ratio 20, spleen
  luciferase activity in spleen relative to DOTAP:Chol standard: 36 fold
